In patent publication US8030478B2, “Method for nucleic acid replication and novel artificial base pairs” (priority 2005, dated 2011):
Where two headings read alike, the source gives them in different places.

Target: T7 RNA polymerase (Escherichia phage T7, UniProt P00573)
Details: for Composition of nucleotide incorporated as 5′ neighbor of A: Cp / Composition of nucleotide incorporated as 5′ neighbor of A: Up / Composition of nucleotide incorporated as 5′ neighbor of A: Ap / Composition of nucleotide incorporated as 5′ neighbor of A: Np (Pa′p) / Composition of nucleotide incorporated as 5′ neighbor of A: Gp: [α-32P]ATP; for Composition of nucleotide incorporated as 5′ neighbor of U: Np (Pa′p) / Composition of nucleotide incorporated as 5′ neighbor of U: Ap / Composition of nucleotide incorporated as 5′ neighbor of U: Gp / Composition of nucleotide incorporated as 5′ neighbor of U: Up / Composition of nucleotide incorporated as 5′ neighbor of U: Cp: [α-32P]UTP
[1] = Entry 7, template temp35Ds-3, natural NTP 1 mM, Pa′ 1 mM, theoretical [0]
[2] = Entry 7, template temp35Ds-3, natural NTP 1 mM, Pa′ 1 mM, theoretical [1]
[3] = Entry 8, template temp35Ds-3, natural NTP 1 mM, Pa′ 3 mM, theoretical [0]
[4] = Entry 8, template temp35Ds-3, natural NTP 1 mM, Pa′ 3 mM, theoretical [1]
[5] = Entry 9, template temp35A-3, natural NTP 1 mM, Pa′ 1 mM, theoretical [0]
[6] = Entry 9, template temp35A-3, natural NTP 1 mM, Pa′ 1 mM, theoretical [1]
[7] = Entry 10, template temp35A-3, natural NTP 1 mM, Pa′ 3 mM, theoretical [0]
[8] = Entry 10, template temp35A-3, natural NTP 1 mM, Pa′ 3 mM, theoretical [1]
[9] = Entry 11, template temp35G-3, natural NTP 1 mM, Pa′ 1 mM, theoretical [0]
[10] = Entry 11, template temp35G-3, natural NTP 1 mM, Pa′ 1 mM, theoretical [1]
[11] = Entry 12, template temp35G-3, natural NTP 1 mM, Pa′ 3 mM, theoretical [0]
[12] = Entry 12, template temp35G-3, natural NTP 1 mM, Pa′ 3 mM, theoretical [1]
[13] = Entry 25, template DNA12, natural NTP 3 mM, Pa′ 3 mM, theoretical [6]
[14] = Entry 27, template DNAcont4, natural NTP 3 mM, Pa′ 3 mM, theoretical [6]
[15] = Entry 32, template DNA11, natural NTP 3 mM, Pa′ 3 mM, theoretical [4]
[16] = Entry 33, template DNA12, natural NTP 3 mM, Pa′ 3 mM, theoretical [4]
[17] = Entry 35, template DNAcont4, natural NTP 3 mM, Pa′ 3 mM, theoretical [4]

T7 RNA polymerase, sequence (P00573 whole entry): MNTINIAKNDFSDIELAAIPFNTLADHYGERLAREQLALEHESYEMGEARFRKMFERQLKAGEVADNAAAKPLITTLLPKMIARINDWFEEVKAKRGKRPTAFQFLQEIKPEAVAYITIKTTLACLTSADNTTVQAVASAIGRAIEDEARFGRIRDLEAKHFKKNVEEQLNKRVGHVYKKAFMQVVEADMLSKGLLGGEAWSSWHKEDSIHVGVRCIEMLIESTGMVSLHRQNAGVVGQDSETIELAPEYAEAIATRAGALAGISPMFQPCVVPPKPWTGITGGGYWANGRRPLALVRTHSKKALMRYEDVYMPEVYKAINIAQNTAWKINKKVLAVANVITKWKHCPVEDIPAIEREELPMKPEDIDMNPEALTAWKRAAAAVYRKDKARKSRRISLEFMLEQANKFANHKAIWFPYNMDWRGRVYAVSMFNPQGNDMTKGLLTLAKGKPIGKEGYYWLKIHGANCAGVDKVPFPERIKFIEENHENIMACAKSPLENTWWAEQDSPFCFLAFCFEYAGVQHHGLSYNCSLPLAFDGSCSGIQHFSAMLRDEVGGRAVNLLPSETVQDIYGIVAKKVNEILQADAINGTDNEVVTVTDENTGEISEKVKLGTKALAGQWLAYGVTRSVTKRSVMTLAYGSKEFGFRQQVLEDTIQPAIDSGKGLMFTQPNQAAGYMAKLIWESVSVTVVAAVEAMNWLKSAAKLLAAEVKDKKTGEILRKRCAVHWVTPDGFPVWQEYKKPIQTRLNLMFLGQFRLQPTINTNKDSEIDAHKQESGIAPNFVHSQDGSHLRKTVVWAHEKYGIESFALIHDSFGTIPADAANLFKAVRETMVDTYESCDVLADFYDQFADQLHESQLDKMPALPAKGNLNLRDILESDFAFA
Protocol: Transcription (20 μl) was accomplished in 40 mM Tris-HCl buffer (pH 8.0) containing 24 mM MgCl2, 2 mM spermidine, 5 mM DTT, 0.01% Triton X-100, 1-3 mM each natural NTP, 0-3 mM Pa′TP, 0-3 mM DsTP, 10 mM GMP, 2 μM template DNA (for 17-mer transcript synthesis) or 0.5 μM template DNA (for tRNA transcript synthesis), and 2.5 units/μl T7 RNA polymerase (TAKARA). […] For nucleotide composition analysis in transcripts (Non-patent Documents 17 and 33), the transcripts were internally labeled with 2 μCi [α-^32P]UTP or [α-^32P]ATP (Amersham). After the transcription, the products were digested with 0.75 units of RNase T2 at 37° C. for 2 hours in 10 μl of 15 mM sodium acetate buffer (pH 4.5). For 17-mer analysis, 0.05 A260 units of E. coli tRNA (Sigma) was added to the digestion reaction solution. The digestion products were analyzed by 2D-TLC (HPTLC plate, 100×100 mm, Merck). The developing solvents used for the first and second dimensions were isobutyric acid-ammonia-water (66:1:33 v/v/v) and isopropyl alcohol-HCl-water (70:15:15 v/v/v or 75:15:10 v/v/v for Pa′ transcripts), respectively. Spots of the labeled nucleotides on the TLC plate were analyzed with a bio-imaging analyzer.
The internally ^32P-labeled transcripts were digested with Rnase T2, and the resulting labeled nucleoside 3′-monophosphates were analyzed by 2D thin-layer chromatography (2D-TLC).

## CC#Cc1cc(C=O)n([C@@H]2O[C@H](COP(=O)(O)OP(=O)(O)OP(=O)(O)O)[C@@H](O)[C@H]2O)c1 [Pa′TP, 4-Propynyl-1-(β-D-ribofuranosyl)pyrrole-2-carbaldehyde 5′-triphosphate]
[1]
  Composition of nucleotide incorporated as 5′ neighbor of A: Cp: 0.01 [0]
  Composition of nucleotide incorporated as 5′ neighbor of A: Up: 0.02 [0]
[2]
  Composition of nucleotide incorporated as 5′ neighbor of A: Ap: 1.03 [1]
  Composition of nucleotide incorporated as 5′ neighbor of A: Np (Pa′p): 0.95 [1]
Entry 7, template temp35Ds-3, natural NTP 1 mM, Pa′ 1 mM, theoretical [2]
  Composition of nucleotide incorporated as 5′ neighbor of A: Gp: 2.00 [2]
[3]
  Composition of nucleotide incorporated as 5′ neighbor of A: Cp: 0.01 [0]
  Composition of nucleotide incorporated as 5′ neighbor of A: Up: 0.02 [0]
[4]
  Composition of nucleotide incorporated as 5′ neighbor of A: Ap: 1.01 [1]
  Composition of nucleotide incorporated as 5′ neighbor of A: Np (Pa′p): 0.97 [1]
Entry 8, template temp35Ds-3, natural NTP 1 mM, Pa′ 3 mM, theoretical [2]
  Composition of nucleotide incorporated as 5′ neighbor of A: Gp: 1.99 [2]
[5]
  Composition of nucleotide incorporated as 5′ neighbor of A: Cp: n.d. [0]
  Composition of nucleotide incorporated as 5′ neighbor of A: Np (Pa′p): n.d. [0]
[6]
  Composition of nucleotide incorporated as 5′ neighbor of A: Ap: 0.99 [1]
  Composition of nucleotide incorporated as 5′ neighbor of A: Up: 1.03 [1]
Entry 9, template temp35A-3, natural NTP 1 mM, Pa′ 1 mM, theoretical [2]
  Composition of nucleotide incorporated as 5′ neighbor of A: Gp: 1.98 [2]
[7]
  Composition of nucleotide incorporated as 5′ neighbor of A: Cp: 0.01 [0]
  Composition of nucleotide incorporated as 5′ neighbor of A: Np (Pa′p): n.d. [0]
[8]
  Composition of nucleotide incorporated as 5′ neighbor of A: Ap: 0.99 [1]
  Composition of nucleotide incorporated as 5′ neighbor of A: Up: 1.00 [1]
Entry 10, template temp35A-3, natural NTP 1 mM, Pa′ 3 mM, theoretical [2]
  Composition of nucleotide incorporated as 5′ neighbor of A: Gp: 1.99 [2]
[9]
  Composition of nucleotide incorporated as 5′ neighbor of A: Np (Pa′p): n.d. [0]
  Composition of nucleotide incorporated as 5′ neighbor of A: Up: 0.01 [0]
[10]
  Composition of nucleotide incorporated as 5′ neighbor of A: Ap: 1.01 [1]
  Composition of nucleotide incorporated as 5′ neighbor of A: Cp: 1.00 [1]
Entry 11, template temp35G-3, natural NTP 1 mM, Pa′ 1 mM, theoretical [2]
  Composition of nucleotide incorporated as 5′ neighbor of A: Gp: 1.98 [2]
[11]
  Composition of nucleotide incorporated as 5′ neighbor of A: Np (Pa′p): n.d. [0]
  Composition of nucleotide incorporated as 5′ neighbor of A: Up: 0.01 [0]
[12]
  Composition of nucleotide incorporated as 5′ neighbor of A: Ap: 1.00 [1]
  Composition of nucleotide incorporated as 5′ neighbor of A: Cp: 1.01 [1]
Entry 12, template temp35G-3, natural NTP 1 mM, Pa′ 3 mM, theoretical [2]
  Composition of nucleotide incorporated as 5′ neighbor of A: Gp: 1.98 [2]
Entry 24, template DNA11, natural NTP 3 mM, Pa′ 3 mM, theoretical [0]
  Composition of nucleotide incorporated as 5′ neighbor of A: Up: 0.09 [0]
Entry 24, template DNA11, natural NTP 3 mM, Pa′ 3 mM, theoretical [1]
  Composition of nucleotide incorporated as 5′ neighbor of A: Np (Pa′p): 0.97 [1]
Entry 24, template DNA11, natural NTP 3 mM, Pa′ 3 mM, theoretical [5]
  Composition of nucleotide incorporated as 5′ neighbor of A: Ap: 5.08 [5]
Entry 24, template DNA11, natural NTP 3 mM, Pa′ 3 mM, theoretical [6]
  Composition of nucleotide incorporated as 5′ neighbor of A: Gp: 5.98 [6]
Entry 24, template DNA11, natural NTP 3 mM, Pa′ 3 mM, theoretical [7]
  Composition of nucleotide incorporated as 5′ neighbor of A: Cp: 6.88 [7]
Entry 25, template DNA12, natural NTP 3 mM, Pa′ 3 mM, theoretical [0]
  Composition of nucleotide incorporated as 5′ neighbor of A: Up: 0.07 [0]
Entry 25, template DNA12, natural NTP 3 mM, Pa′ 3 mM, theoretical [1]
  Composition of nucleotide incorporated as 5′ neighbor of A: Np (Pa′p): 0.98 [1]
[13]
  Composition of nucleotide incorporated as 5′ neighbor of A: Ap: 6.05 [6]
  Composition of nucleotide incorporated as 5′ neighbor of A: Gp: 5.94 [6]
Entry 25, template DNA12, natural NTP 3 mM, Pa′ 3 mM, theoretical [7]
  Composition of nucleotide incorporated as 5′ neighbor of A: Cp: 6.96 [7]
Entry 27, template DNAcont4, natural NTP 3 mM, Pa′ 3 mM, theoretical [0]
  Composition of nucleotide incorporated as 5′ neighbor of A: Np (Pa′p): n.d. [0]
Entry 27, template DNAcont4, natural NTP 3 mM, Pa′ 3 mM, theoretical [1]
  Composition of nucleotide incorporated as 5′ neighbor of A: Up: 1.06 [1]
[14]
  Composition of nucleotide incorporated as 5′ neighbor of A: Ap: 6.04 [6]
  Composition of nucleotide incorporated as 5′ neighbor of A: Gp: 6.00 [6]
Entry 27, template DNAcont4, natural NTP 3 mM, Pa′ 3 mM, theoretical [7]
  Composition of nucleotide incorporated as 5′ neighbor of A: Cp: 6.90 [7]
Entry 32, template DNA11, natural NTP 3 mM, Pa′ 3 mM, theoretical [0]
  Composition of nucleotide incorporated as 5′ neighbor of U: Np (Pa′p): 0.01 [0]
Entry 32, template DNA11, natural NTP 3 mM, Pa′ 3 mM, theoretical [2]
  Composition of nucleotide incorporated as 5′ neighbor of U: Ap: 2.01 [2]
[15]
  Composition of nucleotide incorporated as 5′ neighbor of U: Gp: 3.98 [4]
  Composition of nucleotide incorporated as 5′ neighbor of U: Up: 4.00 [4]
Entry 32, template DNA11, natural NTP 3 mM, Pa′ 3 mM, theoretical [5]
  Composition of nucleotide incorporated as 5′ neighbor of U: Cp: 5.01 [5]
Entry 33, template DNA12, natural NTP 3 mM, Pa′ 3 mM, theoretical [0]
  Composition of nucleotide incorporated as 5′ neighbor of U: Np (Pa′p): 0.01 [0]
Entry 33, template DNA12, natural NTP 3 mM, Pa′ 3 mM, theoretical [2]
  Composition of nucleotide incorporated as 5′ neighbor of U: Ap: 2.00 [2]
[16]
  Composition of nucleotide incorporated as 5′ neighbor of U: Cp: 4.05 [4]
  Composition of nucleotide incorporated as 5′ neighbor of U: Gp: 3.94 [4]
  Composition of nucleotide incorporated as 5′ neighbor of U: Up: 4.01 [4]
Entry 35, template DNAcont4, natural NTP 3 mM, Pa′ 3 mM, theoretical [0]
  Composition of nucleotide incorporated as 5′ neighbor of U: Np (Pa′p): n.d. [0]
Entry 35, template DNAcont4, natural NTP 3 mM, Pa′ 3 mM, theoretical [2]
  Composition of nucleotide incorporated as 5′ neighbor of U: Ap: 2.02 [2]
[17]
  Composition of nucleotide incorporated as 5′ neighbor of U: Gp: 4.00 [4]
  Composition of nucleotide incorporated as 5′ neighbor of U: Up: 3.97 [4]
Entry 35, template DNAcont4, natural NTP 3 mM, Pa′ 3 mM, theoretical [5]
  Composition of nucleotide incorporated as 5′ neighbor of U: Cp: 5.01 [5]
